{"source": "patent US4769384A", "about": "“Benzimidazole derivatives” (Nippon Shinyaku Co. Ltd., priority 1985, dated 1988)", "format_in_all_cases": "in vivo", "key": {"[1]": {"assay": "Acute toxicity, oral, rats", "details": "p.o., two weeks", "protocol": "(§1) Method: Male mice of six weeks of age or male rats of six weeks of age were fasted for 24 hours and subjected to the test.\n(§2) The compound to be tested was suspended in physiological saline solution containing 0.5% of methylcellulose. The suspension was administered orally."}, "[2]": {"assay": "Anti-ulcer action: water-immersion stress ulcer in rats, oral (ulcer index)", "details": "per os", "protocol": "Biological test method: Male rats of seven weeks of age were fasted for 24 hours and subjected to the test. The compound to be tested was suspended in a physiological saline solution containing 0.5% methylcellulose therein. 10 ml/kg of it was administered orally. The animals were immediately placed in a stress cage and immersed in a water bath of 23° C. to the depth of xiphoid. After 17 hours, they were sacrificed by cervical dislocation. The stomach was isolated therefrom. 7 ml of 2% formaline solution was introduced into the stomach for fixation. Then the stomach was cut along a greater curvature. The length of ulcer produced in fundus was measured under a microscope and the total ulcer length (in mm) was defined as an ulcer index per rat. Significance between mean ulcer indices was verified by the Student t-test."}, "[3]": {"assay": "Acute toxicity, oral, mice", "details": "p.o., two weeks", "protocol": "as §1, §2"}, "[4]": {"details": "20 mg/kg (# dose of salt as the corresponding base)"}, "[5]": {"details": "40 mg/kg (# dose of salt as the corresponding base)"}, "[6]": {"details": "80 mg/kg (# dose of salt as the corresponding base)"}, "[7]": {"details": "5 mg/kg (# dose of salt as the corresponding base)"}, "[8]": {"details": "10 mg/kg (# dose of salt as the corresponding base)"}, "[9]": {"details": "5 mg/kg (# dose of salt as the corresponding base), 5 mg/kg"}, "[10]": {"details": "10 mg/kg (# dose of salt as the corresponding base), 10 mg/kg"}, "[11]": {"details": "20 mg/kg (# dose of salt as the corresponding base), 20 mg/kg"}}}
{"smiles": "COC(=O)c1cccc2nc(/C=C/c3ccc(OC)cc3)[nH]c12.O=P(O)(O)O", "note": "[Example 54, Methyl (E)-2-(4-methoxystyryl)benzimidazole-4-carboxylate phosphate]", "values": [{"measurement": "Death Ratio", "setting": "[1]; 2636 mg/kg", "value": "0/4"}, {"measurement": "Antiulcer Action (inhibition %) after 17 hours", "setting": "[2]; [4]", "value": 55, "unit": "%"}, {"measurement": "Antiulcer Action (inhibition %) after 17 hours", "setting": "[2]; [5]", "value": 86, "unit": "%"}, {"measurement": "Antiulcer Action (inhibition %) after 17 hours", "setting": "[2]; [6]", "value": 98, "unit": "%"}]}
{"smiles": "COC(=O)c1cccc2nc(/C=C/c3ccc(OC)c(OC)c3)[nH]c12.Cl", "note": "[Example 70, Methyl (E)-2-(3,4-dimethoxystyryl)benzimidazole-4-carboxylate hydrochloride]", "values": [{"measurement": "Antiulcer Action (inhibition %) after 17 hours", "setting": "[2]; [7]", "value": 3, "unit": "%"}, {"measurement": "Antiulcer Action (inhibition %) after 17 hours", "setting": "[2]; [8]", "value": 72, "unit": "%"}, {"measurement": "Antiulcer Action (inhibition %) after 17 hours", "setting": "[2]; [4]", "value": 80, "unit": "%"}, {"measurement": "Death Ratio", "setting": "[3]; 2340 mg/kg", "value": "1/5"}]}
{"smiles": "CCOc1ccc(/C=C/c2nc3cccc(C(=O)OC)c3[nH]2)cc1OC.O=P(O)(O)O", "note": "[Example 53, Methyl (E)-2-(4-ethoxy-3-methoxystyryl)benzimidazole-4-carboxylate phosphate]", "values": [{"measurement": "Antiulcer Action (inhibition %) after 17 hours", "setting": "[2]; [4]", "value": 81, "unit": "%"}, {"measurement": "Antiulcer Action (inhibition %) after 17 hours", "setting": "[2]; [5]", "value": 99, "unit": "%"}, {"measurement": "Antiulcer Action (inhibition %) after 17 hours", "setting": "[2]; [6]", "value": 99, "unit": "%"}]}
{"smiles": "COC(=O)c1cccc2nc(/C=C/c3ccc(OC)c(OC)c3)[nH]c12.O=S(=O)(O)c1ccccc1", "note": "[Example 86, Methyl (E)-2-(3,4-dimethoxystyryl)benzimidazole-4-carboxylate benzenesulfonate]", "values": [{"measurement": "Death Ratio", "setting": "[1]; 2280 mg/kg", "value": "0/3"}, {"measurement": "Antiulcer Action (inhibition %) after 17 hours", "setting": "[2]; [7]", "value": 4, "unit": "%"}, {"measurement": "Antiulcer Action (inhibition %) after 17 hours", "setting": "[2]; [8]", "value": 35, "unit": "%"}, {"measurement": "Antiulcer Action (inhibition %) after 17 hours", "setting": "[2]; [4]", "value": 98, "unit": "%"}]}
{"smiles": "COC(=O)c1cccc2nc(/C=C/c3ccc(OC)c(OC)c3)[nH]c12", "note": "[Example 65, Methyl (E)-2-(3,4-dimethoxystyryl)benzimidazole-4-carboxylate d-10-camphorsulfonate]", "values": [{"measurement": "Antiulcer Action (inhibition %) after 17 hours", "setting": "[2]; [9]", "value": 12, "unit": "%"}, {"measurement": "Antiulcer Action (inhibition %) after 17 hours", "setting": "[2]; [10]", "value": 69, "unit": "%"}, {"measurement": "Antiulcer Action (inhibition %) after 17 hours", "setting": "[2]; [11]", "value": 89, "unit": "%"}, {"measurement": "Death Ratio", "setting": "[3]; 3440 mg/kg", "value": "2/5"}]}
{"smiles": "COC(=O)c1cccc2[nH]c(/C=C/c3ccc(OC)c(OC)c3)nc12", "note": "[Example 66, Methyl (E)-2-(3,4-dimethoxystyryl)benzimidazole-4-carboxylate 1-naphthalenesulfonate]", "values": [{"measurement": "Antiulcer Action (inhibition %) after 17 hours", "setting": "[2]; [9]", "value": 7, "unit": "%"}, {"measurement": "Antiulcer Action (inhibition %) after 17 hours", "setting": "[2]; [10]", "value": 63, "unit": "%"}, {"measurement": "Antiulcer Action (inhibition %) after 17 hours", "setting": "[2]; [11]", "value": 87, "unit": "%"}]}
{"smiles": "C#CCOc1ccc(/C=C/c2nc3c(C(=O)OC)cccc3[nH]2)cc1", "note": "[Example 30, Methyl (E)-2-[4-(2-propynyloxy)styryl]benzimidazole-4-carboxylate phosphate]", "values": [{"measurement": "Antiulcer Action (inhibition %) after 17 hours", "setting": "[2]; [4]", "value": 44, "unit": "%"}, {"measurement": "Antiulcer Action (inhibition %) after 17 hours", "setting": "[2]; [5]", "value": 55, "unit": "%"}, {"measurement": "Antiulcer Action (inhibition %) after 17 hours", "setting": "[2]; [6]", "value": 82, "unit": "%"}]}
{"smiles": "COC(=O)c1cccc2nc(/C=C/c3ccc(OC)c(OC)c3)[nH]c12.O=S(=O)(O)O", "note": "[Example 67, Methyl (E)-2-(3,4-dimethoxystyryl)benzimidazole-4-carboxylate sulfate]", "values": [{"measurement": "Antiulcer Action (inhibition %) after 17 hours", "setting": "[2]; [7]", "value": 48, "unit": "%"}, {"measurement": "Antiulcer Action (inhibition %) after 17 hours", "setting": "[2]; [8]", "value": 72, "unit": "%"}]}
{"smiles": "Br.COC(=O)c1cccc2nc(/C=C/c3ccc(OC)c(OC)c3)[nH]c12", "note": "[Example 69, Methyl (E)-2-(3,4-dimethoxystyryl)benzimidazole-4-carboxylate hydrobromide]", "values": [{"measurement": "Antiulcer Action (inhibition %) after 17 hours", "setting": "[2]; [7]", "value": 38, "unit": "%"}, {"measurement": "Antiulcer Action (inhibition %) after 17 hours", "setting": "[2]; [8]", "value": 82, "unit": "%"}, {"measurement": "Death Ratio", "setting": "[3]; 2560 mg/kg", "value": "2/5"}]}
{"smiles": "CN/C(=N/CCSCc1nc[nH]c1C)NC#N", "note": "[Cimetidine, reference compound]", "values": [{"measurement": "Antiulcer Action (inhibition %) after 17 hours", "setting": "[2]; 200 mg/kg", "value": 66, "unit": "%"}]}
{"smiles": "COC(=O)c1cccc2nc(/C=C/c3ccc(OC)cc3)[nH]c12", "note": "[Example 14, Methyl (E)-2-(4-methoxystyryl)benzimidazole-4-carboxylate]", "values": [{"measurement": "Death Ratio", "setting": "[1]; 2000 mg/kg", "value": "0/4"}, {"measurement": "Antiulcer Action (inhibition %) after 17 hours", "setting": "[2]; 20 mg/kg", "value": 26, "unit": "%"}, {"measurement": "Antiulcer Action (inhibition %) after 17 hours", "setting": "[2]; 40 mg/kg", "value": 81, "unit": "%"}, {"measurement": "Antiulcer Action (inhibition %) after 17 hours", "setting": "[2]; 80 mg/kg", "value": 96, "unit": "%"}]}
{"smiles": "COC(=O)c1cccc2nc(/C=C/c3ccc(OC)c(OC)c3)[nH]c12", "note": "[Example 1, Methyl (E)-2-(3,4-dimethoxystyryl)benzimidazole-4-carboxylate]", "values": [{"measurement": "Death Ratio", "setting": "[1]; 2000 mg/kg", "value": "1/4"}, {"measurement": "Antiulcer Action (inhibition %) after 17 hours", "setting": "[2]; 10 mg/kg", "value": 40, "unit": "%"}, {"measurement": "Antiulcer Action (inhibition %) after 17 hours", "setting": "[2]; 20 mg/kg", "value": 78, "unit": "%"}, {"measurement": "Antiulcer Action (inhibition %) after 17 hours", "setting": "[2]; 40 mg/kg", "value": 97, "unit": "%"}, {"measurement": "Death Ratio", "setting": "[3]; 2000 mg/kg", "value": "0/5"}]}
{"smiles": "COC(=O)c1cccc2nc(/C=C/c3ccc(OC)c(OC)c3)[nH]c12", "note": "[1 (phosphate), Methyl (E)-2-(3,4-dimethoxystyryl)benzimidazole-4-carboxylate]", "values": [{"measurement": "Death Ratio", "setting": "[1]; 2580 mg/kg", "value": "0/4"}, {"measurement": "Antiulcer Action (inhibition %) after 17 hours", "setting": "[2]; [8]", "value": 66, "unit": "%"}, {"measurement": "Antiulcer Action (inhibition %) after 17 hours", "setting": "[2]; [4]", "value": 92, "unit": "%"}, {"measurement": "Death Ratio", "setting": "[3]; 2580 mg/kg", "value": "0/3"}]}
